Test results published in US7388016B2, “Dibenzonaphthyridine derivatives and methods of use thereof” (Wyeth, priority 2005, dated 2008).

Target: T1, PDK-1 (Homo sapiens, UniProt O15530)
T1 sequence (O15530 1-556): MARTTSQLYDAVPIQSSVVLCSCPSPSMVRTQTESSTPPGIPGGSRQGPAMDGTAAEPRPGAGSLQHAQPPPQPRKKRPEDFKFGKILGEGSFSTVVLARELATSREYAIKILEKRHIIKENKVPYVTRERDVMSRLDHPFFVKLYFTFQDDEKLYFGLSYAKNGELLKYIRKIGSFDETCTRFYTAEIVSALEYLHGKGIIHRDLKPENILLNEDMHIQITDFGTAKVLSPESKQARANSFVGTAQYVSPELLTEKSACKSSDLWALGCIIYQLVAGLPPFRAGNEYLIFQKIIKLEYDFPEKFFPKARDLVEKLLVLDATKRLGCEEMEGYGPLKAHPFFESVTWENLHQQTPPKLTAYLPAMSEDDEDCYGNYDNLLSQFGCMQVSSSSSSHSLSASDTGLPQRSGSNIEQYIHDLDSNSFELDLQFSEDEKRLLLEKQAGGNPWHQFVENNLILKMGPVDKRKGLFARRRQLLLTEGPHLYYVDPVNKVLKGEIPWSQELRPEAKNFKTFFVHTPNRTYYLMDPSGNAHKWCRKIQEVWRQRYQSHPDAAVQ
Assay: In vitro PDK-1 inhibition ELISA assay (phosphorylation of SGK1 on Threonine 256)
Type: biochemical
Conditions: PDK-1 phosphorylates 6xHIS tagged SGK1, 17 minutes reaction, chemiluminescent detection
Method: The ability of illustrative Dibenzonaphthyridine Derivatives to inhibit PDK-1 in vitro can be determined using the ELISA assay as decribed in Kobayashi et al., Biochem. J. 339:319-328 (1999) and Park et al., EMBO J. 18:3024-3033 (1999).
In this in vitro assay, PDK-1 kinase phosphorylates SGK1 on Threonine 256. After 17 minutes, the reaction is quenched via the addition of urea. The 6×HIS tagged SGK1 is then bound to 96 well Ni-NTA HisSorb plates and the phosphorylated SGK1 is detected using rabbit derived anti-phospho SGK antibody as the primary antibody and HRP coupled anti-rabbit antibody as the secondary antibody. HRP is then detected using a Chemiluminescent Substrate.

Compound	IC50 [nM]
COc1cc2ncc3c(OC)nc4c(C)c(OC)ccc4c3c2cc1OC [Compound I-1, 2,3,7,10-tetramethoxy-9-methyldibenzo[c,f]-2,7-naphthyridine]	23800
COc1cc2ncc3cnc4c(C)c(N)ccc4c3c2cc1OC [Compound I-3, 10,11-dimethoxy-4-methyldibenzo[c,f]-2,7-naphthyridin-3-amine]	2500
COc1cc2ncc3c(N)nc4ccccc4c3c2cc1OC [Ib-1, 10,11-dimethoxydibenzo[c,f]-2,7-naphthyridin-6-amine]	2400
CCOc1cc2ncc3c(N)nc4c(C)c(N)ccc4c3c2cc1OCC [Ib-3, 10,11-diethoxy-4-methyldibenzo[c,f]-2,7-naphthyridine-3,6-diamine]	273
COc1cc2c(cc1F)ncc1c(N)nc3c(C)c(N)ccc3c12 [Ib-4, 10-fluoro-11-methoxy-4-methyldibenzo[c,f]-2,7-naphthyridine-3,6-diamine]	388
COc1cc2c(cc1N(C)CCCN(C)C)ncc1c(N)nc3c(C)c(N)ccc3c12 [Ib-5, N^10-[3-(dimethylamino)propyl]-11-methoxy-N^10,4-dimethyldibenzo[c,f]-2,7-naphthyridine-3,6,10-triamine]	1010
COc1cc2c(cc1N(C)CCN(C)C)ncc1c(N)nc3c(C)c(N)ccc3c12 [Ib-6, N^10-[2-(dimethylamino)ethyl]-11-methoxy-N^10,4-dimethyldibenzo[c,f]-2,7-naphthyridine-3,6,10-triamine]	1170
COc1cc2c(cc1NCCCN1CCN(C)CC1)ncc1c(N)nc3c(C)c(N)ccc3c12 [Ib-7, 11-methoxy-4-methyl-N^10-[3-(4-methylpiperazin-1-yl)propyl]dibenzo[c,f]-2,7-naphthyridine-3,6,10-triamine]	555
COc1cc2c(cc1NCCCN1CCOCC1)ncc1c(N)nc3c(C)c(N)ccc3c12 [Ib-8, 11-methoxy-4-methyl-N^10-(3-morpholin-4-ylpropyl)dibenzo[c,f]-2,7-naphthyridine-3,6,10-triamine]	290
COc1cc2c(cc1NCCN1CCOCC1)ncc1c(N)nc3c(C)c(N)ccc3c12 [Ib-9, 11-methoxy-4-methyl-N^10-(2-morpholin-4-ylethyl)dibenzo[c,f]-2,7-naphthyridine-3,6,10-triamine]	296
COc1cc2c(cc1NCCCN1CCCC1)ncc1c(N)nc3c(C)c(N)ccc3c12 [Ib-12, 11-methoxy-4-methyl-N^10-(3-pyrrolidin-1-ylpropyl)dibenzo[c,f]-2,7-naphthyridine-3,6,10-triamine]	846
COc1cc2c(cc1NCCN1CCCC1)ncc1c(N)nc3c(C)c(N)ccc3c12 [Ib-13, 11-methoxy-4-methyl-N^10-(2-pyrrolidin-1-ylethyl)dibenzo[c,f]-2,7-naphthyridine-3,6,10-triamine]	3710
COc1cc2c(cc1NCCN(C)C)ncc1c(N)nc3c(C)c(N)ccc3c12 [Ib-14, N^10-[2-(dimethylamino)ethyl]-11-methoxy-4-methyldibenzo[c,f]-2,7-naphthyridine-3,6,10-triamine]	2410
COc1cc2c(cc1NCCCN(C)C)ncc1c(N)nc3c(C)c(N)ccc3c12 [Ib-15, N^10-[3-(dimethylamino)propyl]-11-methoxy-4-methyldibenzo[c,f]-2,7-naphthyridine-3,6,10-triamine]	972
COCCOc1cc2ncc3c(N)nc4c(C)c(N)ccc4c3c2cc1OCCOC [Ib-17, 10,11-bis(2-methoxyethoxy)-4-methyldibenzo[c,f]-2,7-naphthyridine-3,6-diamine]	275
COc1cc2c(cc1OCCN1CC1)ncc1c(N)nc3c(C)c(N)ccc3c12 [Ib-19, 10-(2-aziridin-1-ylethoxy)-11-methoxy-4-methyldibenzo[c,f]-2,7-naphthyridine-3,6-diamine]	482
COc1cc2c(cc1OCCc1ccccn1)ncc1c(N)nc3c(C)c(N)ccc3c12 [Ib-24, 11-methoxy-4-methyl-10-(2-pyridin-2-ylethoxy)dibenzo[c,f]-2,7-naphthyridine-3,6-diamine]	2860

Results, then the compound that gave them:

IC50 [nM]	Compound
93	COc1cc2ncc3c(N)nc4c(C)c(N)ccc4c3c2cc1OC [Ib-2, 10,11-dimethoxy-4-methyldibenzo[c,f]-2,7-naphthyridine-3,6-diamine]
57.5	COc1cc2c(cc1OCCN1CCOCC1)ncc1c(N)nc3c(C)c(N)ccc3c12 [Ib-10, 11-methoxy-4-methyl-10-(2-morpholin-4-ylethoxy)dibenzo[c,f]-2,7-naphthyridine-3,6-diamine]
121	COc1cc2c(cc1OCCCN1CCOCC1)ncc1c(N)nc3c(C)c(N)ccc3c12 [Ib-11, 11-methoxy-4-methyl-10-(3-morpholin-4-ylpropoxy)dibenzo[c,f]-2,7-naphthyridine-3,6-diamine]
878	COc1cc2c(cc1OCC1CCN(C)CC1)ncc1c(N)nc3c(C)c(N)ccc3c12 [Ib-16, 11-methoxy-4-methyl-10-[(1-methylpiperidin-4-yl)methoxy]dibenzo[c,f]-2,7-naphthyridine-3,6-diamine]
42.5	COc1cc2c(cc1OCCCl)ncc1c(N)nc3c(C)c(N)ccc3c12 [Ib-18, 10-(2-chloroethoxy)-11-methoxy-4-methyldibenzo[c,f]-2,7-naphthyridine-3,6-diamine]
377	COc1cc2c(cc1OCCN(C)C)ncc1c(N)nc3c(C)c(N)ccc3c12 [Ib-20, 10-[2-(dimethylamino)ethoxy]-11-methoxy-4-methyldibenzo[c,f]-2,7-naphthyridine-3,6-diamine]
196	COc1cc2c(cc1OCCCN(C)C)ncc1c(N)nc3c(C)c(N)ccc3c12 [Ib-21, 10-[3-(dimethylamino)propoxy]-11-methoxy-4-methyldibenzo[c,f]-2,7-naphthyridine-3,6-diamine]
261	COc1cc2c(cc1OCCN1CCCC1)ncc1c(N)nc3c(C)c(N)ccc3c12 [Ib-22, 11-methoxy-4-methyl-10-(2-pyrrolidin-1-ylethoxy)dibenzo[c,f]-2,7-naphthyridine-3,6-diamine]
347	CCN(CC)CCOc1cc2ncc3c(N)nc4c(C)c(N)ccc4c3c2cc1OC [Ib-23, 10-[2-(diethylamino)ethoxy]-11-methoxy-4-methyldibenzo[c,f]-2,7-naphthyridine-3,6-diamine]
288	COc1cc2c(cc1OCCC1CCCN1C)ncc1c(N)nc3c(C)c(N)ccc3c12 (stereo not drawn) [Ib-25, 11-methoxy-4-methyl-10-[2-(1-methylpyrrolidin-2-yl)ethoxy]dibenzo[c,f]-2,7-naphthyridine-3,6-diamine]
324	COc1cc2c(cc1OCCN1CCCCC1)ncc1c(N)nc3c(C)c(N)ccc3c12 [Ib-26, 11-methoxy-4-methyl-10-(2-piperidin-1-ylethoxy)dibenzo[c,f]-2,7-naphthyridine-3,6-diamine]
295	CCN(CC)CCCOc1cc2ncc3c(N)nc4c(C)c(N)ccc4c3c2cc1OC [Ib-27, 10-[3-(diethylamino)propoxy]-11-methoxy-4-methyldibenzo[c,f]-2,7-naphthyridine-3,6-diamine]
350	COc1cc2c(cc1OCCN1CCCCCC1)ncc1c(N)nc3c(C)c(N)ccc3c12 [Ib-28, 10-(2-azepan-1-ylethoxy)-11-methoxy-4-methyldibenzo[c,f]-2,7-naphthyridine-3,6-diamine]
